Here are results for 4 compounds from article PMC10454409, “Hybrids of Sterically Hindered Phenols and Diaryl Ureas: Synthesis, Switch from Antioxidant Activity to ROS Generation and Induction of Apoptosis” (International Journal of Molecular Sciences, 2023).

In series [1] the test system is isolated rat liver mitochondria. Kind of series: Membrane potential of isolated mitochondria (Safranin A). Type of series: biochemical. As for the experimental part:
The membrane potential of rat […] mitochondria was measured with a Victor 3 plate analyzer (Perkin Elmer, Hamburg, Germany) using the potential-dependent indicator Safranin A [57]. The mitochondrial preparation was diluted in a buffer containing mannitol (225 mM) (Dia-M, Moscow, Russia), sucrose (75 mM) (Sigma Aldrich, Saint Louis, MO, USA), HEPES (10 mM) (Gibco, Scotland, UK), EGTA (20 µM) (Dia-M, Moscow, Russia) and KH2PO4 (1 mM) at pH = 7.4 at a ratio of 0.5 mg of protein to 1 mL of medium. Safranin A (5 µM) was added to the suspension immediately before the start of the measurement. The organelles were then energized by potassium succinate (5 mM) in the presence of rotenone (1 µM). Mitochondrial pore opening was induced by the addition of CaCl2 (25 µM).
Figure 8 Effect of the synthesized compounds on the membrane potential of rat liver mitochondria. (a) Kinetic lines of transmembrane potential changes at λex = 458 nm and λem = 590 nm. The concentration of the test substances was 100 µM. (b) Calculated parameters of % depolarization relative to control samples. Statistical significance was assessed using one-way ANOVA and Dunnett’s multiple comparison tests, where **** p < 0.0001 vs. control. (c) Concentration dependence of the effects of 11b and 17b on mitochondrial membrane potential. The concentration of the test substances was from 20 to 200 µM. Concentration of ions; Ca^2+—25 µM. Mitochondria were energized by potassium succinate and rotenone. Data are presented as mean±error of the mean (n = 3).

The subject of series [2] is HuTu 80 cells (human duodenal adenocarcinoma). Kind of series: MTT cytotoxicity test, HuTu 80. Type of series: cell-based. As to conditions: Homo sapiens, HuTu80, read-out: IC50, HuTu 80. The source says:
(§1) For the experiments, we used tumor cell cultures M-HeLa clone 11 (epithelioid carcinoma of the cervix, subline HeLa., clone M-HeLa), HuTu 80 (human duodenal adenocarcinoma) and MCF7 (human breast adenocarcinoma (pleural fluid)) from the collection of the Institute of Cytology, Russian Academy of Sciences (St. Petersburg); human liver cells (Chang liver) from the collection of the Research Institute of Virology at the Russian Academy of Medical Sciences (Moscow); and SH-SY5Y (neuroblastoma)from the Laboratory of Tumor Cell Genetics at the Scientific Research Institute of Carcinogenesis N.N. Blokhin National Medical Research Center of Oncology.
(§2) The cytotoxic effect on cells was determined using the colorimetric method of cell proliferation—the MTT test. NADP-H-dependent cellular oxidoreductase enzymes can, under certain conditions, reflect the number of viable cells. These enzymes are able to reduce the tetrazolium dye (MTT)-3-(4,5-dimethylthiazol-2-yl)-2,5-diphenyl-tetrazolium bromide to insoluble blue-violet formazan, which crystallizes inside the cell. The amount of formazan formed is proportional to the number of cells with active metabolism.
(§3) Cells were seeded on a 96-well Nunc plate at a concentration of 5 × 10^3 cells per well in a volume of 100 μL of medium and cultured in a CO2 incubator at 37 °C until a monolayer was formed. […] After 48 h, the nutrient medium was removed from the plates and 100 µL of the nutrient medium without serum with MTT at a concentration of 0.5 mg/mL was added and incubated for 4 h at 37 °C. Formazan crystals were […] 100 µL of DMSO in each well. Optical density was recorded at 540 nm on an in vitro logic microplate reader (Russia). The experiments for all compounds were repeated in triplicate.
(§4) IC50 values were estimated using the Quest Graph IC50 Calculator (AAT Bioquest, Inc., Sunnyvale, CA, USA) (Version 2022) (accessed on 25 June 2022).
On the technique in general: Tetrazolium dyes change colour on reduction, which living cells bring about.

For series [3], the system named is HuTu 80 cells. Kind of series: Intracellular ROS level, CellROX Deep Red flow cytometry. In kind it is cell-based, human. Particulars: 48 h incubation, maximum concentration (IC50). On the technique in general: A flow cytometer gives signals particle by particle.
Series [4] concerns M-HeLa cells (human cervix epithelioid carcinoma). Kind of series: MTT cytotoxicity test, M-HeLa. In kind it is cell-based. Particulars: Homo sapiens, M-HeLa; MTT test; 24 h incubation per text, 48 h per method.
Source text: as §1, §2, §3, §4

In series [5] the test system is MCF-7 cells (human breast adenocarcinoma). Kind of series: MTT cytotoxicity test, MCF-7. Type of series: cell-based. Particulars: Homo sapiens, MCF7, MTT test; 24 h incubation per text, 48 h per method. As for the experimental part:
as §2
Formazan crystals were added to 100 µL of DMSO in each well. Optical density was recorded at 540 nm on an in vitro logic microplate reader (Russia). The experiments for all compounds were repeated in triplicate.

Series [6] relates to Chang liver cells (human liver cells, normal cell line). Kind of series: MTT cytotoxicity test, Chang liver normal cells. In kind it is cell-based. As to conditions: 48 h incubation.
Source text: as §1, §2, §3, §4

Series [7] concerns SH-SY5Y cells (neuroblastoma). Kind of series: MTT cytotoxicity test, SH-SY5Y. As to conditions: Homo sapiens, SH-SY5Y; MTT test; 24 h incubation per text, 48 h per method. In kind it is cell-based.
Source text: as §1, §2, §3, §4

In series [8] the test system is SH-SY5Y neuroblastoma cells. Kind of series: Glycolysis stress test (Seahorse XF96e, ECAR). Type of series: cell-based. Particulars: compound 100 µM. As for the experimental part:
We studied the ability of compounds to inhibit aerobic glycolysis using the Agilent Seahorse XF96e Analyzer (Seahorse Bioscience, North Billerica, MA, USA) assay of cellular metabolism on the level of proton production in samples examined on the SH-SY5Y neuroblastoma cell line using glycolysis stress tests. The extracellular acidification rate of the medium was measured in real time, which allowed us to assess the intensity of glycolysis in the cells by recording the main parameters of glycolytic function: basal glycolysis, glycolytic capacity and glycolytic reserve. Glycolytic capacity describes the maximum amount of glycolysis/glucose breakdown the cells can perform acutely, whereas glycolytic reserve is defined as the difference between the basal and maximal glycolytic capacity.
The ability of synthesized compounds to modulate […] glycolysis was studied using the Agilent Seahorse XF96e Analyzer (Seahorse Bioscience, Billerica, MA, USA) on the neuroblastoma SH-SY5Y cell line (40,000 cells per well) as described earlier.
Glycolysis was measured by subtracting the maximum rate of extracellular acidification of the medium before glucose injection from the maximum rate before oligomycin injection. Glycolytic capacity was measured by subtracting the maximum velocity value before glucose injection from the maximum velocity value after oligomycin injection. Glycolytic reserve was defined as the difference between glycolytic capacity and glycolysis.
Figure 6 Effect of synthesized compounds on the glycolytic profile of (a–c) SH-SY5Y tumor cells and (d) calculated parameters of glycolytic function. […] The concentration of compounds was 100 µM, glucose—10 mM, oligomycin—1 µM и 2-fluoro-2-deoxy-D-glucose—25 mM. Data are presented as mean±error of the mean (n = 3). Statistical significance was assessed using one-way ANOVA and Dunnett’s multiple comparison tests, where **** p < 0.0001, *** p < 0.001, ** p < 0.01 and * p < 0.05 vs. control.

Series [9] is described as follows: Cyclic voltammetry. In kind it is physicochemical. Particulars: in CH3CN vs. Ag/AgCl; GC electrode; 0.1 V/s. The source says:
Electrochemical measurements were taken on a BASi Epsilon EClipse electrochemical analyzer (West Lafayette, IN, USA). The program concentrated cEpsilon-ECUSB-V200 waves at the potential scan rate t = […] in a CH3CN 0.1 M solution of Bu4NBF4 at 295 K. A glassy carbon working electrode (ð = 3 mm) embedded in Teflon and a Pt wire as the counter electrode were used in the electrochemical cell. Before each measurement, the surface of the working electrode was mechanically polished. Ag/AgCl (0.01 M KCl) was used as a reference electrode. The reference electrode was connected with the cell solution by a modified Luggin capillary filled with the supporting electrolyte solution (0.1 M Bu4NBF4 in CH3CN). Thus, the reference electrode assembly had two compartments, each terminated with an ultra-fine glass frit to separate the AgCl from the analyte. The scan rate was 100 mV∙s^−1. The measurements were performed in a temperature-controlled electrochemical cell (volume from 5 mL to 20 mL) in an inert gas atmosphere (N2).
Figure 10 Cyclic voltammogram for the oxidation of SHPs. Conditions: 0.1 mM CH3CN (0.1 M Bu4NBF4); potentials vs. Ag/AgCl; work electrode: GC; scan rate: 0.1 V/s.

One may read the IC50 as the midpoint of a concentration-inhibition curve. The term melting point denotes the temperature, or range, at which the solid turns liquid.

`CCOP(=O)(OCC)C(c1cc(C(C)(C)C)c(O)c(C(C)(C)C)c1)c1ccc(NC(=O)Nc2ccc(Cl)cc2)nc1NC(=O)Nc1ccc(Cl)cc1` (stereo not drawn) [11b]: in series [1] (isolated mitochondria, compound 100 μM), the “Depolarization of mitochondrial membrane” value turned out to be 50%. For the same compound, in series [1] (isolated rat liver mitochondria, compound 100 µM), the “Depolarization relative to control (class in Figure 8b)” value was “High Depolarization”. Further, the IC50 was 25.7 µM in series [2]; 70 ± 5.5 µM in series [4]; 63.1 ± 4.9 µM in series [5]; 99.4 ± 7.8 µM in series [6]; 46.4 ± 0.92 µM in series [7]. The “Intracellular ROS level” value in [3] is listed as 670.7 ± 7.2%. Besides, the Glycolytic reserve result in [8] was “ability to decrease glycolytic reserves”. The “Glycolysis: rate of extracellular acidification after saturating glucose” value in series [8] (glucose 10 mM) is recorded as “decrease in the rate of extracellular acidification”. In addition, in series [8] (oligomycin 1 µM), the Glycolytic capacity entry is listed as “decrease in glycolytic capacity”.

`Cc1cc(C(C)(C)C)c(O)c(C(C)(C)C)c1` [ionol] came in with an Oxidation potential in [9] of approximately 1.45 V.

Regarding `O=C(Nc1ccccc1)Nc1ccccc1` [diphenyl urea], the Oxidation potential in series [9] is listed as 1.60 V.

In turn, `COP(=O)(OC)C(c1cc(C(C)(C)C)c(O)c(C(C)(C)C)c1)c1ccc(NC(=S)Nc2ccccc2)cc1NC(=S)Nc1ccccc1` (stereo not drawn) [19a] came in with a melting point of 207 to 208 °C. The IC50 in series [2] was more than 70 µM. The IC50 in [4] was more than 70 µM. Besides, in series [5], the IC50 is more than 70 µM. Moreover, the IC50 in series [7] is more than 70 µM.
